Laboratory results from patent US11253516B2, “N2,N4-diphenylpyrimidine-2,4-diamine derivative, method for preparing same, and pharmaceutical composition containing same as active ingredient for prevention or treatment of cancer” (Korea Research Institute of Chemical Technology, priority 2017, dated 2022).
Like-named read-outs stand apart in the source and are kept apart here.

What was measured:
Ba/F3 EGFR wt. cell line = assay: CellTiter-Glo cell viability, Ba/F3 EGFR wild-type; type: cell-based; settings: 72 hours
Experimental: (§1) The measurement of an activity on wild-type and mutation Ba/F3 EGFR cell line of the compound of the present invention was experimented by utilizing the CellTiter-Glo system sold by Promega, as follow. The CellTiter-Glo assay is a method for measuring the ATP present in cells in cell culture conditions to determine the cell viability.
(§2) The analysis of an EGFR inhibitory ability effect of the compound was carried out in accordance with the analysis reaction recipe below.
(§3) After the reaction of 72 hours, the plate treated with the compound was allowed to stand for 30 minutes at ambient temperature, and then, was further treated with 100 μl of the reagent, and was shaked for 10 minutes at ambient temperature. […] The measurement values measured at the eight concentrations of the compound were analyzed by using the Prism program (version 5.01, Graphpad Software, Inc.), and IC50 value of the compound was calculated, which is an inhibitory ability indicator.

[1] = test system: Ba/F3 EGFR del19 cell line; assay: CellTiter-Glo cell viability, Ba/F3 EGFR del19; type: cell-based; settings: 72 hours
Experimental: as §1, §2, §3

[2] = test system: Ba/F3 EGFR del19/T790M cell line; assay: CellTiter-Glo cell viability, Ba/F3 EGFR del19/T790M; type: cell-based; settings: read-out: Ba/F3 EGFR del19/T790M IC50
Experimental: as §1, §2
(§4) After the reaction of 72 hours, the plate treated with the compound was allowed to stand for 30 minutes at ambient temperature, and then, was further treated with 100 μl of the reagent, and was shaked for 10 minutes at ambient temperature.

EGFR wt. = EGFR wt. (Homo sapiens (Human), UniProt P00533); assay: HTRF enzyme assay, wild-type EGFR; type: biochemical; settings: recombinant enzyme
Experimental: (§5) The measurement of an activity on wild-type and EGFR mutation enzyme of the compound of the present invention was experimented by utilizing the HTRF system sold by Cisbio, as follow.
(§6) The composition of the assay buffer used in the activity measurement was 50 mM Tris-HCl pH 7.5, 100 mM NaCl, 7.5 mM MgCl2, 3 mM KCl, 0.01% Tween 20, 0.1% BSA, 1 mM DTT. The enzymatic reaction was carried out hereto by using the peptide substrate labeled with ATP of […] concentration and biotin of […] concentration. The analysis of an EGFR activity inhibitory effect of the compound was carried out in accordance with the analysis reaction recipe below.
(§7) Component 1: […] of EGFR wild-type or mutation enzyme
(§8) Component 2: […] of compound solution
(§9) Component 3: […] of peptide labeled with ATP and biotin
(§10) The enzymatic reaction was initiated by mixing Component 1 and Component 2 first, and then, adding component 3. After the reaction for 2 hours at 37° C., […] of a measurement solution consisting of streptavidin-XL665 provided by Cisbio and anti-phosphotyrosine antibody labeled with europium was added to the enzymatic reaction solution and reacted for 1 hour at ambient temperature. […] The measurement values measured at the seven concentrations of the compound were analyzed by using the Prism program (version 5.01, Graphpad Software, Inc.), and IC50 value of the compound was calculated, which is an inhibitory ability indicator.

EGFR del19 = EGFR del19 (Homo sapiens (Human), UniProt P00533, DEL746-750); assay: HTRF enzyme assay, EGFR del19; type: biochemical; settings: recombinant enzyme
Experimental: as §5, §6, §7, §8, §9, §10

EGFR del19/T790M = EGFR del19/T790M (Homo sapiens (Human), UniProt P00533, DEL746-750/T790M); assay: HTRF enzyme assay, EGFR del19/T790M; type: biochemical; settings: recombinant enzyme
Experimental: as §5, §6, §7, §8, §9, §10

EGFR del19/T790M/C797S = EGFR del19/T790M/C797S (Homo sapiens, UniProt P00533, C797S/DEL746-750/T790M); assay: HTRF enzyme assay, EGFR del19/T790M/C797S; type: biochemical
Experimental: as §5, §6, §7, §8, §9, §10

[3] = test system: Ba/F3 EGFR del19/T790M/C797S cell line; assay: CellTiter-Glo cell viability, Ba/F3 EGFR del19/T790M/C797S; type: cell-based; settings: read-out: Ba/F3 EGFR del19/T790M/C797S IC50
Experimental: as §1, §2, §4

[4] = HTRF, recombinant enzyme, read-out: EGFR del19/T790M/C797S IC50

Chain of EGFR del19/T790M (P00533 other isoform, or with tags, fused parts or gaps T790M/del 1-668/del 746-750 limits assumed): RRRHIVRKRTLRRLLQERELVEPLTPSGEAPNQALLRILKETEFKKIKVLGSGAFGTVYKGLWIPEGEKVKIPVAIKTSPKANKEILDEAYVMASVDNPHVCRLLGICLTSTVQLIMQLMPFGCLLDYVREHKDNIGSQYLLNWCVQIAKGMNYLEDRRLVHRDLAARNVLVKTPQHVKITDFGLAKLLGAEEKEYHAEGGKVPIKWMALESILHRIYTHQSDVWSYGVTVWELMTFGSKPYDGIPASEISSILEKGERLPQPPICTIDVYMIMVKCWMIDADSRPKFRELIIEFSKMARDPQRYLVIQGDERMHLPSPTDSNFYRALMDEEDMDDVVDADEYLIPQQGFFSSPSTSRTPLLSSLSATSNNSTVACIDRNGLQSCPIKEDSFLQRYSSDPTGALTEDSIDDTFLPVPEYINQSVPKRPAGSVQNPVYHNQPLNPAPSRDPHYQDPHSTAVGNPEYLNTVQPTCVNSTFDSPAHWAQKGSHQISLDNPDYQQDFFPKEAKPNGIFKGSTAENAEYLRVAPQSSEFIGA
Chain of EGFR del19/T790M/C797S (P00533 with tags, fused parts or gaps C797S/DEL746-750/T790M limits assumed): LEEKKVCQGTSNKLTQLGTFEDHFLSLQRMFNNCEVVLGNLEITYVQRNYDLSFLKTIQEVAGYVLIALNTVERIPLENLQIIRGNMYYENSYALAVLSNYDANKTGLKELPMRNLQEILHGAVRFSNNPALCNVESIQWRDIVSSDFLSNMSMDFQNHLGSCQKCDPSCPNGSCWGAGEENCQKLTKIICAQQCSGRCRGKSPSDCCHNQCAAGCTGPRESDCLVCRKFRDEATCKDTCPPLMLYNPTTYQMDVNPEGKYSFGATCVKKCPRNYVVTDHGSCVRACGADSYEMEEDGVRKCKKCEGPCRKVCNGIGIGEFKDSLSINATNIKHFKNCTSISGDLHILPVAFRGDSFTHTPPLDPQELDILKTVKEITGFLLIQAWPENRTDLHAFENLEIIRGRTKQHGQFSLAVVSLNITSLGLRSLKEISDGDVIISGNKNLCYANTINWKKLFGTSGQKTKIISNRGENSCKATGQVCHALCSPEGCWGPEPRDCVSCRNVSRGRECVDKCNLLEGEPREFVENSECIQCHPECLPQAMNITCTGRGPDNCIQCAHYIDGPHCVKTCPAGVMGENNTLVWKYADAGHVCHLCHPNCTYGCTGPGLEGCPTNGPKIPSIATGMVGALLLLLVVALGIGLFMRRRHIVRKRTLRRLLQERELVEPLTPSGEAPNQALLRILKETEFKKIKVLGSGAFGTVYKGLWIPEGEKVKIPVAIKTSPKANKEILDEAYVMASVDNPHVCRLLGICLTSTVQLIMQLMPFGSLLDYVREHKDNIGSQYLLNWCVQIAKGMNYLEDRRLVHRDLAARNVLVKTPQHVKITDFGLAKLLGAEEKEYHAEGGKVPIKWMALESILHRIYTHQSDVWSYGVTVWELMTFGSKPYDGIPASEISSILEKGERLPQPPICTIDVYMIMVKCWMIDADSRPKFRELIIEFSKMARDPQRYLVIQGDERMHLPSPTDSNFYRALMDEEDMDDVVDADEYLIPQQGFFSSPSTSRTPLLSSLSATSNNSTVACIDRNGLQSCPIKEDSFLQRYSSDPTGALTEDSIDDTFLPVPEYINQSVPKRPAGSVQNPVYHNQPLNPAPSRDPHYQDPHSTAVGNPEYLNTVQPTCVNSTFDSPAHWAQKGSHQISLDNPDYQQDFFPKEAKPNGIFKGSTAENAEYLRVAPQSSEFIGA
Chain of EGFR wt. (P00533 25-1210): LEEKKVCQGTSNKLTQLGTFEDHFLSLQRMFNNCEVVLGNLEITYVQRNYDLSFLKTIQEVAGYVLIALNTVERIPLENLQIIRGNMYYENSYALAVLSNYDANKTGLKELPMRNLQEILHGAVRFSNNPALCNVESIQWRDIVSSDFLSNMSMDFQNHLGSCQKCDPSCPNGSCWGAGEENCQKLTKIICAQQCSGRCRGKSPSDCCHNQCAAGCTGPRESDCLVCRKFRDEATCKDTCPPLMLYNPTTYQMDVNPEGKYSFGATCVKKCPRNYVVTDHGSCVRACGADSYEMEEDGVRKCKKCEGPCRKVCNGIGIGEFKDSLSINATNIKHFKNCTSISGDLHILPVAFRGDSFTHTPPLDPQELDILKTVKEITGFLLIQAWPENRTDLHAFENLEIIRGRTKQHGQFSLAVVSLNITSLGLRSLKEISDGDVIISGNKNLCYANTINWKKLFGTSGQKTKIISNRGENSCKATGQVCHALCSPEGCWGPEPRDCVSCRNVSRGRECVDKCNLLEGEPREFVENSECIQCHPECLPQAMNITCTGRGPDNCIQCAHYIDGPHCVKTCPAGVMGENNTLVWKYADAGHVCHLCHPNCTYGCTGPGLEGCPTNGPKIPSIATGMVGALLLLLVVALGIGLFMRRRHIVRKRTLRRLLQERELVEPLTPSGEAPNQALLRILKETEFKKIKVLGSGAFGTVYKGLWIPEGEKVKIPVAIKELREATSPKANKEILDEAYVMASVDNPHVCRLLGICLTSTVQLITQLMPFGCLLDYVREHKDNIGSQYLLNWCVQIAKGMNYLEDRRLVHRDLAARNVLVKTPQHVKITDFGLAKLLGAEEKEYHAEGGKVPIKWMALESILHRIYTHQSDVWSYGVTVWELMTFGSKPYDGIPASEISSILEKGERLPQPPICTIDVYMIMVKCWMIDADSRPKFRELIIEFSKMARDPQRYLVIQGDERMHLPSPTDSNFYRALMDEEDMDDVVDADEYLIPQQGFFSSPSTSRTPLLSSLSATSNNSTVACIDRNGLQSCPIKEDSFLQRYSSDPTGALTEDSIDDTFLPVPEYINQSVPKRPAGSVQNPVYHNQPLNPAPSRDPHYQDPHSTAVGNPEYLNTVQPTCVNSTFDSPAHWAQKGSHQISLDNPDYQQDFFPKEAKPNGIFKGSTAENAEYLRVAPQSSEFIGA
Chain of EGFR del19 (P00533 other isoform, or with tags, fused parts or gaps del 1-668/del 746-750 limits assumed): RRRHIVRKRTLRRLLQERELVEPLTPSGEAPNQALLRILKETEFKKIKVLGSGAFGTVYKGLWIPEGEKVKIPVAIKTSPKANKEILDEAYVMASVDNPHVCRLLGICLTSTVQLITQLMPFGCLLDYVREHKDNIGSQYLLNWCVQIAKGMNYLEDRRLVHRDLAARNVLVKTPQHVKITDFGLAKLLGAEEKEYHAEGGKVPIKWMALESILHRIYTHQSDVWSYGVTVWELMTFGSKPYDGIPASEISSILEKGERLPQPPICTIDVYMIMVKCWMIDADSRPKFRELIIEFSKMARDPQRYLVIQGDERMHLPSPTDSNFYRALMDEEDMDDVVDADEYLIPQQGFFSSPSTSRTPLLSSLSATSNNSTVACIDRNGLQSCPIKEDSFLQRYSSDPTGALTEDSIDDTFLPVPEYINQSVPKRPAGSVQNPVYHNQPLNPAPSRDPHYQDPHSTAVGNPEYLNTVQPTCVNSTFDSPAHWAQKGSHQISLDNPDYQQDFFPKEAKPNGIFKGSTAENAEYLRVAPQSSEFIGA

Row | Compound | IC50 (Ba/F3 EGFR wt. cell line) [nM] | IC50 [1] [nM] | IC50 ([2]; CellTiter-Glo, 72 hours) [nM] | IC50 (EGFR wt.) [nM] | IC50 (EGFR del19) [nM] | IC50 (EGFR del19/T790M) [nM] | IC50 (EGFR del19/T790M/C797S; [4]) [nM] | IC50 ([3]; CellTiter-Glo, 72 hours) [nM] | IC50 (EGFR del19/T790M/C797S) [nM] | IC50 ([2]; 72 h) [nM] | IC50 ([3]; 72 h) [nM]
1 | COc1cc(C2CCNCC2)ccc1Nc1ncc(Cl)c(Nc2ccccc2NS(C)(=O)=O)n1 [Example 1, N-(2-((5-chloro-2-((2-methoxy-4-(piperidin-4-yl)phenyl)amino)pyrimidin-4-yl)amino)phenyl)methanesulfonamide] | > 15000 | 6600 | 7100 |  |  |  |  |  |  |  | 
2 | COc1cc(C2CCNCC2)c(C)cc1Nc1ncc(Cl)c(Nc2ccccc2NS(C)(=O)=O)n1 [Example 2, N-(2-((5-chloro-2-((2-methoxy-5-methyl-4-(piperidin-4-yl)phenyl)amino)pyrimidin-4-yl)amino)phenyl)methanesulfonamide] | 2800 | 3800 | 1800 | 730 | 12 | 12 | 3 | 2400 |  |  | 
3 | COc1cc(C2CCNCC2)ccc1Nc1ncc(Br)c(Nc2ccccc2NS(C)(=O)=O)n1 [Example 3, N-(2-((5-bromo-2-((2-methoxy-4-(piperidin-4-yl)phenyl)amino)pyrimidin-4-yl)amino)phenyl)methanesulfonamide] | 4100 | 1000 | 1200 | 840 | 18 | 5 | 2 | 1600 |  |  | 
4 | COc1cc(C2CCNCC2)ccc1Nc1ncc(C(F)(F)F)c(Nc2ccccc2NS(C)(=O)=O)n1 [Example 5, N-(2-((2-((2-methoxy-4-(piperidin-4-yl)phenyl)amino)-5-(trifluoromethyl)pyrimidin-4-yl)amino)phenyl)methanesulfonamide] | 2400 | 260 | 570 | 4300 | 33 | 13 | 14 | 790 |  |  | 
5 | COc1cc(C2CCNCC2)ccc1Nc1ncc(Cl)c(Nc2ccccc2NS(N)(=O)=O)n1 [Example 6, 4-(4-((5-chloro-4-((2-(sulfamoylamino)phenyl)amino)pyrimidin-2-yl)amino)-3-methoxyphenyl)piperidine] | > 15000 | 6400 | 9000 | 390 | 26 | 10 | 11 | 5800 |  |  | 
6 | COc1cc(C2CCNCC2)ccc1Nc1ncc(Br)c(Nc2ccccc2NS(N)(=O)=O)n1 [Example 7, 4-(4-((5-bromo-4-((2-(sulfamoylamino)phenyl)amino)pyrimidin-2-yl)amino)-3-methoxyphenyl)piperidine] | 3400 | 470 | 1600 | > 10000 | 79 | 38 | 2 | 3300 |  |  | 
7 | COc1cc(C2CCN(C)CC2)ccc1Nc1ncc(Cl)c(Nc2ccccc2NS(C)(=O)=O)n1 [Example 12, N-(2-((5-chloro-2-((2-methoxy-4-(1-methylpiperidin-4-yl)phenyl)amino)pyrimidin-4-yl)amino)phenyl)methanesulfonamide] | 320 | 330 | 380 | 1200 | 22 | 130 | 2 | 80 |  |  | 
8 | COc1cc(C2CCN(CCO)CC2)ccc1Nc1ncc(Cl)c(Nc2ccccc2NS(C)(=O)=O)n1 [Example 13, N-(2-((5-chloro-2-((4-(1-(2-hydroxyethyl)piperidin-4-yl)-2-methoxyphenyl)amino)pyrimidin-4-yl)amino)phenyl)methanesulfonamide] | 4400 | 980 | 650 | 1900 | 13 | 250 | 33 | 1500 |  |  | 
9 | COc1cc(N2CCC(N3CCN(CCO)CC3)CC2)ccc1Nc1ncc(Cl)c(Nc2ccccc2NS(C)(=O)=O)n1 [Example 22, N-(2-((5-chloro-2-((4-(4-(4-(2-hydroxyethyl)piperazin-1-yl)piperidin-1-yl)-2-methoxyphenyl)amino)pyrimidin-4-yl)amino)phenyl)methanesulfonamide] |  | 900 |  | 260 | 0.4 | 31 |  |  | 0.8 | 390 | 1300
10 | COc1cc(N2CCNCC2)ccc1Nc1ncc(Cl)c(Nc2ccccc2NS(C)(=O)=O)n1 [Example 23, N-(2-((5-chloro-2-((2-methoxy-4-(piperazin-1-yl)phenyl)amino)pyrimidin-4-yl)amino)phenyl)methanesulfonamide] |  |  |  | 2700 | 25 | 32 | 29 |  |  |  | 
11 | COc1cc(N2CCN(C3CCNCC3)CC2)ccc1Nc1ncc(Cl)c(Nc2ccccc2NS(C)(=O)=O)n1 [Example 27, N-(2-((5-chloro-2-((2-methoxy-4-(4-(piperidin-4-yl)piperazin-1-yl)phenyl)amino)pyrimidin-4-yl)amino)phenyl)methanesulfonamide] |  | 1100 | 940 | 280 | 0.3 | 21 | 1 | > 10000 |  |  | 
12 | COc1cc(N2CCNCC2)ccc1Nc1ncc(C(F)(F)F)c(Nc2ccccc2NS(C)(=O)=O)n1 [Example 31, N-(2-((2-((2-methoxy-4-(piperazin-4-yl)phenyl)amino)-5-(trifluoromethyl)pyrimidin-4-yl)amino)phenyl)methanesulfonamide] |  |  |  | 580 | 36 | 29 | 7 |  |  |  | 
13 | COc1cc(N2CCC(N3C[C@@H](C)N[C@@H](C)C3)CC2)ccc1Nc1ncc(Cl)c(Nc2ccccc2NS(C)(=O)=O)n1 [Example 33, N-(2-((5-chloro-2-((4-(4-((3R,5S)-3,5-dimethylpiperazin-1-yl)piperidin-1-yl)-2-methoxyphenyl)amino)pyrimidin-4-yl)amino)phenyl)methanesulfonamide] |  |  |  |  |  |  | < 1 | 120 |  |  | 
14 | COc1cc(N2CCC(N3CCOCC3)CC2)ccc1Nc1ncc(Cl)c(Nc2ccccc2NS(C)(=O)=O)n1 [Example 34, N-(2-((5-chloro-2-((2-methoxy-4-(4-morpholinopiperidin-1-yl)phenyl)amino)pyrimidin-4-yl)amino)phenyl)methanesulfonamide] |  |  |  |  |  |  | < 1 | 160 |  |  | 
15 | COc1cc(N2CCC(N3CCCC3)CC2)ccc1Nc1ncc(Cl)c(Nc2ccccc2NS(C)(=O)=O)n1 [Example 35, N-(2-((5-chloro-2-((2-methoxy-4-(4-(pyrrolidin-1-yl)piperidin-1-yl)phenyl)amino)pyrimidin-4-yl)amino)phenyl)methanesulfonamide] |  |  |  | 27 | 1.1 | 8.3 | < 1 | 84 |  |  | 
16 | COc1cc(N2CCC(N(C)C)CC2)ccc1Nc1ncc(Cl)c(Nc2ccccc2NS(N)(=O)=O)n1 [Example 36] |  |  |  |  |  |  |  | 930 |  |  | 
17 | COc1cc(N2CCC(N)CC2)ccc1Nc1ncc(Cl)c(Nc2ccccc2NS(C)(=O)=O)n1 [Example 38, N-(2-((2-((4-(4-aminopiperidin-1-yl)-2-methoxyphenyl)amino)-5-chloropyrimidin-4-yl)amino)phenyl)methanesulfonamide] |  |  |  |  |  |  |  | 840 |  |  | 
18 | CNC1CCN(c2ccc(Nc3ncc(Cl)c(Nc4ccccc4NS(C)(=O)=O)n3)c(OC)c2)CC1 [Example 40, N-(2-((5-chloro-2-((2-methoxy-4-(4-(methylamino)piperidin-1-yl)phenyl)amino)pyrimidin-4-yl)amino)phenyl)methanesulfonamide] |  |  |  |  |  |  |  | 500 |  |  | 
